Assay results reported in patent publication US20170095565A1, “CHEMICALLY MODIFIED SMALL MOLECULES” (Nektar Therapeutics, priority 2003, published 2017).
Converted amounts (≈) assume the structure as drawn. Read-outs that look alike come from different tables or passages of the source.

What was measured:
[1] = target: Mu-opiate (Homo sapiens, UniProt P35372); details: read-out: IC50, Mu-opiate binding activity
[2] = Solubility of tested compounds (Table 1)
[3] = target: μ-Opiate Receptors (Homo sapiens, UniProt P35372); assay: biochemical; assay type: biochemical
Text: In the table above, for each compound, the bioactivity is provided as a measure of the relative bioactivity of each of the various PEG conjugates in comparison to parent drug. The EC50 is the concentration of agonist that provokes a response halfway between the baseline and maximum response in a standard dose-response curve.

[4] = Oral bioavailability: plasma concentration after oral gavage; assay type: in vivo, Sprague Dawley rats; details: rats
Experimental: Female Sprague Dawley® rats (150-200 g) were obtained from Harlan Labs. […] The animals were fasted overnight (day −1), but water was provided ad libitum.
On the morning of dosing (day 0), each rat was weighed and the cannulas flushed with heparin (1000 U/mL). With the aid of a feeding tube, the animals were then dosed orally (gavage) with aqueous formulations containing either the PEGylated or the free drug. The dose was determined on a mg/kg body weight basis. […] At specific time intervals (1, 2 and 4 hours), blood samples (approximately 1.0 mL) were removed through the cannula, placed in 1.5 mL centrifuge tubes containing 14 μL of heparin, mixed and centrifuged to separate the plasma. The plasma samples were frozen (<−70° C.) until assayed. The plasma samples were purified by a precipitation technique and the analyte extracted and assayed using a high performance liquid chromatography (LC) method with a mass selective detector (MSD). […] When appropriate, an internal standard was used in the analysis.

[5] = In situ brain perfusion, blood-brain barrier uptake; details: for Normalized Brain Uptake Rate (Mean ± SD): normalized to 5 μM dosing solution, 20 mL/min perfusion rate, 30 sec; for Reduction in brain uptake rate (BUR) compared to the parent compound (factor / times): vs parent drug
Experimental: As utilized for these experiments, the in situ brain perfusion technique employed the intact rat brain to (i) determine drug permeation across the BBB under normal physiological conditions, and (ii) to study transport mechanisms such as passive diffusion verses carrier mediated transport.
Perfusion was performed using the single time-point method. Briefly, the perfusion fluid (perfusate) containing the test compound(s) was infused into rats via the left external carotid artery at a constant rate by an infusion pump (20 mL/min). Perfusion flow rate was set to completely take over fluid flow to the brain at normal physiologic pressure (80-120 mm Hg). The duration of the perfusion was 30 seconds. Immediately following the perfusion, the brain vasculature was perfused for an additional 30 seconds with drug-free perfusate to remove residual drug. The pump was turned off and the brain was then immediately removed from the skull. Left-brain samples from each rat were first weighed and then homogenized using a Polytron homogenizer. Four (4) mL of 20% methanol was added to each rat brain for homogenization. After homogenization, the total volume of homogenate was measured and recorded.
A measured amount of the homogenate was diluted with organic solvent and subsequently centrifuged. The supernatant was removed, evaporated in a stream of nitrogen and reconstituted and analyzed by LC/MS/MS. Quantification of drug concentrations in brain homogenate was performed against calibration curves generated by spiking the drugs into blank (i.e. drug-free) brain homogenate. Analysis of the drug concentrations in brain homogenates was carried out in triplicate, and the values were used to calculate the brain uptake rate in pmole per gram of rat brain per second of perfusion.
All the data was normalized to a 5 μM dosing solution at 20 mL/min perfusion rate for 30 sec.

[6] = PEGylated compounds normalized to 1 mg/kg dose

Chain of Mu-opiate (P35372 whole entry): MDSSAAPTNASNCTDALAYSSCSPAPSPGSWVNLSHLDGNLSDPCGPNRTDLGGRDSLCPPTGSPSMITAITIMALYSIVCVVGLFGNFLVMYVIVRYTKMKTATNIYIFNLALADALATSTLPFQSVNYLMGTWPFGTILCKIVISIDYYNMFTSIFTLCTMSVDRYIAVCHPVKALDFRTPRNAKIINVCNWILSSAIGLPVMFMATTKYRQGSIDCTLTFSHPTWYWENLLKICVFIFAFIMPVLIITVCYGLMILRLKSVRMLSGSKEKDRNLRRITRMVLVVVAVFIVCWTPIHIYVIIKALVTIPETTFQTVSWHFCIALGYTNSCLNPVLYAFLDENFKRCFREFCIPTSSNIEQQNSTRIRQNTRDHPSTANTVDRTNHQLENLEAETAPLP
Chain of μ-Opiate Receptors (P35372 whole entry): as above

Structure (SMILES): C=CCN1CC[C@]23c4c5ccc(O)c4O[C@H]2[C@@H](OCCOCCOCCOCCOCCOCCOCCOCCOCCOC)CC[C@@]3(O)[C@H]1C5 (single isomer, unassigned) [α isomer of PEG9-Nal]
- IC50 ([1]; naloxone series of compounds): 64.4 nM
- Solubility [2]: soluble

Structure (SMILES): C=CCN1CCC23c4c5ccc(O)c4OC2C(O)CCC3(O)C1C5 (single isomer, unassigned) [α-6-naloxol, reference compound]
- EC50 ([3]; μ-opiate receptors, in-vitro): 2 nM

Structure (SMILES): C=CCN1CCC23c4c5ccc(O)c4OC2C(O)CCC3(O)C1C5 (single isomer, unassigned) [β-6-naloxol, reference compound]
- EC50 ([3]; μ-opiate receptors, in-vitro): 10.8 nM

Structure (SMILES): CC1=C(/C=C/C(C)=C/C=C/C(C)=C\C(=O)O)C(C)(C)CCC1 [13-cis-Retinoic Acid, 13-cis-retinoic acid, reference compound]
- Mean Plasma Concentration ± SD, 1 hr ([4]; normalized to a 6 mg/kg dose): 43.3 ± 24.0 ng/mL
- Mean Plasma Concentration ± SD, 2 hr ([4]; normalized to a 6 mg/kg dose): 23.3 ± 14.8 ng/mL
- Normalized Brain Uptake Rate (Mean ± SD) [5]: 102.54 ± 37.31 pmole/gm brain/sec
- Solubility [2]: 0.47 µM (≈ 0.141 µg/mL)

Structure (SMILES): C=CCN1CC[C@]23c4c5ccc(O)c4O[C@H]2C(=O)CC[C@@]3(O)[C@H]1C5 [Naloxone, naloxone, reference compound]
- Percentage of Active Remaining After Incubation with Liver Microsomes (0 min): 100.0%
- Percentage of Active Remaining After Incubation with Liver Microsomes (20 min): 47.1%
- Percentage of Active Remaining After Incubation with Liver Microsomes (40 min): 27.6%
- Percentage of Active Remaining After Incubation with Liver Microsomes (60 min): 15.6%
- Normalized Brain Uptake Rate (Mean ± SD) [5]: 15.64 ± 3.54 pmole/gm brain/sec

Structure (SMILES): COCCOCCOCCNC(=O)\C=C(C)/C=C/C=C(C)/C=C/C1=C(C)CCCC1(C)C [PEG3-13-cis-RA, CH3(OCH2CH2)3—NH-13-cis-Retinamide]
- Mean Plasma Concentration ± SD, 1 hr ([4]; normalized to a 6 mg/kg dose): 131.8 ± 55.0 ng/mL
- Mean Plasma Concentration ± SD, 2 hr ([4]; normalized to a 6 mg/kg dose): 158.0 ± 133.0 ng/mL
- Normalized Brain Uptake Rate (Mean ± SD) [5]: 79.65 ± 20.91 pmole/gm brain/sec
- Solubility [2]: 3.13 µM (≈ 1.39 µg/mL)

Structure (SMILES): C=CCN1CC[C@]23c4c5ccc(O)c4O[C@H]2C(OCCOCCOCCOC)CC[C@@]3(O)[C@H]1C5 (some centres unmarked) [PEG3-Nal, 6-CH3—(OCH2CH2)3-Naloxol]
- Normalized Brain Uptake Rate (Mean ± SD) [5]: 4.67 ± 3.57 pmole/gm brain/sec

Structure (SMILES): COCCOCCOCCOCCOCCNC(=O)\C=C(C)/C=C/C=C(C)/C=C/C1=C(C)CCCC1(C)C [PEG5-13-cis-RA, CH3—(OCH2CH2)5—NH-13-cis-retinamide]
- Mean Plasma Concentration ± SD, 1 hr ([4]; normalized to a 6 mg/kg dose): 77.7 ± 31.6 ng/mL
- Mean Plasma Concentration ± SD, 2 hr ([4]; normalized to a 6 mg/kg dose): 61.6 ± 57.1 ng/mL
- Normalized Brain Uptake Rate (Mean ± SD) [5]: 58.49 ± 13.44 pmole/gm brain/sec
- Solubility [2]: soluble

Structure (SMILES): C=CCN1CC[C@]23c4c5ccc(O)c4O[C@H]2[C@H](OCCOCCOCCOCCOCCOC)CC[C@@]3(O)[C@H]1C5 [PEG5-Nal, α,β-6-CH3—(OCH2CH2)5—O-naloxol]
- Normalized Brain Uptake Rate (Mean ± SD) [5]: 0.96 ± 0.36 pmole/gm brain/sec
- Reduction in brain uptake rate (BUR) compared to the parent compound (factor / times) [5]: 16

Structure (SMILES): COCCOCCOCCOCCOCCOCCOCCNC(=O)\C=C(C)/C=C/C=C(C)/C=C/C1=C(C)CCCC1(C)C [PEG7-13-cis-RA, CH3—(OCH2CH2)7—NH-13-cis-Retinamide]
- Mean Plasma Concentration ± SD, 1 hr ([4]; normalized to a 6 mg/kg dose): 44.0 ± 13.0 ng/mL
- Mean Plasma Concentration ± SD, 2 hr ([4]; normalized to a 6 mg/kg dose): 38.7 ± 4.2 ng/mL
- Normalized Brain Uptake Rate (Mean ± SD) [5]: 24.15 ± 1.49 pmole/gm brain/sec
- Reduction in brain uptake rate (BUR) compared to the parent compound (factor / times) [5]: four
- Solubility [2]: 58.3 µM (≈ 36.3 µg/mL)

Structure (SMILES): C=CCN1CC[C@]23c4c5ccc(O)c4O[C@H]2[C@H](OCCOCCOCCOCCOCCOCCOCCOC)CC[C@@]3(O)[C@H]1C5 [PEG7-Nal, α,β-6-CH3—(OCH2CH2)7—O-naloxol]
- Reduction in brain uptake rate (BUR) compared to the parent compound (factor / times) [5]: 16

Structure (SMILES): COCCOCCOCCOCCOCCOCCOCCOCCOCCOCCOCCNC(=O)\C=C(C)/C=C/C=C(C)/C=C/C1=C(C)CCCC1(C)C [PEG11-13-cis-RA, CH3—(OCH2CH2)11—NH-13-cis-Retinamide]
- Mean Plasma Concentration ± SD, 1 hr ([4]; normalized to a 6 mg/kg dose): 21.8 ± 7.1 ng/mL
- Mean Plasma Concentration ± SD, 2 hr ([4]; normalized to a 6 mg/kg dose): 58.2 ± 43.5 ng/mL
- Normalized Brain Uptake Rate (Mean ± SD) [5]: 17.77 ± 1.68 pmole/gm brain/sec
- Reduction in brain uptake rate (BUR) compared to the parent compound (factor / times) [5]: five
- Solubility [2]: soluble

Structure (SMILES): C=CCN1CC[C@]23c4c5ccc(O)c4O[C@H]2[C@@H](OCCOCCOCCOC)CC[C@@]3(O)[C@H]1C5 [α-PEG3-Nal, α-6-CH3—(OCH2CH2)3—O-naloxol]
- IC50 [1]: 7.3 nM
- Percentage of Active Remaining After Incubation with Liver Microsomes (0 min): 100.0%
- Percentage of Active Remaining After Incubation with Liver Microsomes (20 min): 64.8%
- Percentage of Active Remaining After Incubation with Liver Microsomes (40 min): 51.7%
- Percentage of Active Remaining After Incubation with Liver Microsomes (60 min): 45.7%
- Mean Plasma Concentration ± SD, 1 hr [4, 6]: 37.28 ± 4.99 ng/mL
- Mean Plasma Concentration ± SD, 2 hr [4, 6]: 14.92 ± 5.27 ng/mL
- Bioactivity relative to the parent compound ([3]; from EC50 values): about 30%
- EC50 ([3]; μ-opiate receptors, in-vitro): 7.3 nM
- Solubility [2]: soluble

Structure (SMILES): C=CCN1CC[C@]23c4c5ccc(O)c4O[C@H]2[C@H](OCCOCCOCCOCCOCCOC)CC[C@@]3(O)[C@H]1C5 [α-PEG5-Nal, α,β-6-CH3—(OCH2CH2)5—O-naloxol]
- IC50 [1]: 31.5 nM
- Percentage of Active Remaining After Incubation with Liver Microsomes (rat, microsomes, 0 h): 100.0%
- Percentage of Active Remaining After Incubation with Liver Microsomes (rat, microsomes, 20 min): 84.1%
- Percentage of Active Remaining After Incubation with Liver Microsomes (rat, microsomes, 40 min): 75.6%
- Percentage of Active Remaining After Incubation with Liver Microsomes (rat, microsomes, 1 h): 69.2%
- Mean Plasma Concentration ± SD, 1 hr [4, 6]: 27.37 ± 10.82 ng/mL
- Mean Plasma Concentration ± SD, 2 hr [4, 6]: 15.38 ± 6.65 ng/mL
- EC50 [3]: 31.5 nM
- Solubility [2]: soluble

Structure (SMILES): C=CCN1CC[C@]23c4c5ccc(O)c4O[C@H]2[C@H](OCCOCCOCCOCCOCCOCCOCCOC)CC[C@@]3(O)[C@H]1C5 [α-PEG7-Nal, α,β-6-CH3—(OCH2CH2)7—O-naloxol]
- Percentage of Active Remaining After Incubation with Liver Microsomes (rat, microsomes, 0 h): 100.0%
- Percentage of Active Remaining After Incubation with Liver Microsomes (rat, microsomes, 20 min): 87.4%
- Percentage of Active Remaining After Incubation with Liver Microsomes (rat, microsomes, 40 min): 81.6%
- Percentage of Active Remaining After Incubation with Liver Microsomes (rat, microsomes, 1 h): 76.9%
- Mean Plasma Concentration ± SD, 1 hr [4, 6]: 40.08 ± 16.61 ng/mL
- Mean Plasma Concentration ± SD, 2 hr [4, 6]: 39.51 ± 9.57 ng/mL
- Normalized Brain Uptake Rate (Mean ± SD) ([5]; listed as PEG7-Nal (α isomer)): 0.94 ± 0.32 pmole/gm brain/sec
- Solubility [2]: soluble

Structure (SMILES): C=CCN1CC[C@]23c4c5ccc(O)c4O[C@H]2[C@H](OCCOCCOCCOCCOCCOC)CC[C@@]3(O)[C@H]1C5 [β-PEG5-Nal, α,β-6-CH3—(OCH2CH2)5—O-naloxol]
- IC50 ([1]; naloxone series of compounds): 43.3 nM
- Mean Plasma Concentration ± SD, 1 hr [4, 6]: 69.34 ± 15.03 ng/mL
- Mean Plasma Concentration ± SD, 2 hr [4, 6]: 36.92 ± 15.84 ng/mL
- EC50 ([3]; μ-opiate receptors, in-vitro): 43.3 nM
- Solubility [2]: soluble

Structure (SMILES): C=CCN1CC[C@]23c4c5ccc(O)c4O[C@H]2[C@H](OCCOCCOCCOCCOCCOCCOCCOC)CC[C@@]3(O)[C@H]1C5 [β-PEG7-Nal, α,β-6-CH3—(OCH2CH2)7—O-naloxol]
- Mean Plasma Concentration ± SD, 1 hr [4, 6]: 50.41 ± 36.44 ng/mL
- Mean Plasma Concentration ± SD, 2 hr [4, 6]: 50.08 ± 25.28 ng/mL
- Normalized Brain Uptake Rate (Mean ± SD) [5]: 0.70 ± 0.19 pmole/gm brain/sec
- Solubility [2]: soluble
